BindingDB's records for PubMed 39288705 (Comenius University Bratislava)

Tests used:
[1] = target: T1, Replicase polyprotein 1ab (Severe acute respiratory syndrome coronavirus 2, UniProt P0DTD1); assay: Inhibition of SARS-CoV-2 3CL protease extracted from Escherichia coli BL21 (DE3) Rosetta cells using DabcylKNSTLQSGLRKE-Edan as substrate preincubated for 60 mins followed by substrate addition and measured after 20 mins by FRET assay
[2] = target: T1, Replicase polyprotein 1ab; assay: Binding affinity to SARS-CoV-2 3CL protease extracted from Escherichia coli BL21 (DE3) Rosetta cells assessed as dissociation constant
[3] = target: T1, Replicase polyprotein 1ab; assay: Binding affinity to SARS-CoV-2 3CL protease assessed as dissociation constant by SPR analysis
[4] = target: T1, Replicase polyprotein 1ab; assay: Inhibition of SARS-CoV-2 3CL protease by FRET assay

## CCC(C(=O)Nc1cc(NC2CCOCC2)ccc1C)n1cc(Cl)cc2nc(SCc3ccc(F)cc3)nc1-2 (stereo not given)
[1]
  IC50: 520 nM
[2]
  Kd: 1000 nM

## CCC(C(=O)Nc1cc(NC2CCOC2)ccc1C)n1cc(Cl)cc2nc(SCc3ccc(F)cc3)nc1-2 (stereo not given)
[2]
  Kd: 1110 nM

## CCC(C(=O)Nc1cc(NC2COC2)ccc1C)n1cccc2nc(SCc3ccc(F)cc3)nc1-2 (stereo not given)
[3]
  Kd: 1400 nM

## CCC(C(=O)Nc1cc(NC2CCNC2)ccc1C)n1cccc2nc(SCc3ccc(F)cc3)nc1-2 (stereo not given)
[4]
  IC50: 140 nM
